# According to patent US10519162B2, “6,7-dihydropyrazolo[1,5-α]pyrazin-4(5H)-one compounds and their use as negative allosteric modulators of mGluR2 receptors” (Janssen Pharmaceutica NV, priority 2014, dated 2019):
# Target: T1, human mGlu2 receptor (Homo sapiens, UniProt Q14416)
# T1 construct: expressed in transfected cells; host or cells: CHO cells
# Assay: [35S]GTPγS binding assay (mGluR2 negative allosteric modulation, glutamate ~EC80 60 μM)
# Format: biochemical
# Details: for Emax: maximal % inhibition relative to the control glutamate response (EC80 glutamate), read-out: GTPγS-hmGluR2 anGT Emax; for IC50: membranes from CHO cells transfected with human mGlu2 receptor, glutamate ~EC80 (60 μM), pIC50 = −log IC50 (M), read-out: GTPγS-hmGluR2 anGT pIC50 (converted)
# Protocol: 1) [^35S]GTPγS Binding Assay
# [^35S]GTPγS Binding Assay
# Total reaction volume was 200 μl. […] Membrane-bound radioactivity was counted in a Topcount.
# T1 sequence (Q14416 19-872): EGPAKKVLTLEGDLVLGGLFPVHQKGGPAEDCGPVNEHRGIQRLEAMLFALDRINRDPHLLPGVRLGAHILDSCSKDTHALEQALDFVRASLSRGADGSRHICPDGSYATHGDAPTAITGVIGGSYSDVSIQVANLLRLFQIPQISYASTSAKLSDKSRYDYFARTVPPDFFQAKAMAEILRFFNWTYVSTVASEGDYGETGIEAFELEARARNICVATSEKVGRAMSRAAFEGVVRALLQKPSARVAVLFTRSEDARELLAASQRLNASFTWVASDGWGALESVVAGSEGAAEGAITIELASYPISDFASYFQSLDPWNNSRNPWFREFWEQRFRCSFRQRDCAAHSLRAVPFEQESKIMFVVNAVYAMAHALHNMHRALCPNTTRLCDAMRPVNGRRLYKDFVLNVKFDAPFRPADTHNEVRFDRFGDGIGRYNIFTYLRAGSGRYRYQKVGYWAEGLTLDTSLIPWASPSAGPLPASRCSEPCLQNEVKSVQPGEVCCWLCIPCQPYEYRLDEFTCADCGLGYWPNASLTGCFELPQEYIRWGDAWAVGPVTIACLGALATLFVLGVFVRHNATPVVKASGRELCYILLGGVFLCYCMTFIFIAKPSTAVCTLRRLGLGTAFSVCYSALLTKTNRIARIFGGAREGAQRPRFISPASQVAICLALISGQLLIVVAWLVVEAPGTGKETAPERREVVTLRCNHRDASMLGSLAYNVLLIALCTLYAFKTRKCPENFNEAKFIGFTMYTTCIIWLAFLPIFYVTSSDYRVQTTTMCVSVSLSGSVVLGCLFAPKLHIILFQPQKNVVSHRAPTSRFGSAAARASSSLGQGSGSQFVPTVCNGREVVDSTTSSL
Emax [%],IC50 [M],Structure (SMILES)
105,6.03e-08,Cc1nccc(C(=O)Nc2cnn3c2C(=O)N(c2ccc(C(F)(F)F)cc2)C[C@@H]3C)c1C [Co. No. 154]
112,8.71e-09,Cc1cc(C(=O)Nc2cnn3c2C(=O)N(c2ccc(Cl)cc2)C[C@@H]3C)cc(C)n1 [Co. No. 132]
104,5.5e-09,Cc1nccc(C(=O)Nc2cnn3c2C(=O)N(c2ccc(C(F)(F)F)c(Cl)c2)C[C@@H]3C)c1C [Co. No. 155]
107,1.66e-08,Cc1cncc(C(=O)Nc2cnn3c2C(=O)N(c2ccc(Cl)cc2)C[C@@H]3C)c1 [Co. No. 131]
106,1.86e-08,Cc1cc(C(=O)Nc2cnn3c2C(=O)N(c2ccc(C(F)(F)F)cc2)C[C@@H]3C)c(C)cn1 [Co. No. 157]

# Further lines, the compound ahead of its results:
Structure (SMILES),Emax [%],IC50 [M]
C[C@H]1CN(c2ccc(C(F)(F)F)cc2)C(=O)c2c(NC(=O)c3ncccc3F)cnn21 [Co. No. 67],102,2.82e-08
COc1nc(N2C[C@H](C)n3ncc(NC(=O)c4ccc(N)nc4)c3C2=O)ccc1Cl [Co. No. 65],111,2.69e-08
C[C@H]1CN(c2ccc(C(F)(F)F)cc2)C(=O)c2c(NC(=O)c3ccc(O)nn3)cnn21 [Co. No. 92],101,1.26e-06
C[C@H]1CN(c2ccc(C(F)(F)F)cc2)C(=O)c2c(NC(=O)c3ccc(N)nn3)cnn21 [Co. No. 90],97,2.88e-07
"C[C@H]1CN(c2ccc(C(F)(F)F)c(CF)c2)C(=O)c2c(NC(=O)c3ccc(N)nc3)cnn21 [Co. No. 5, 6-Amino-N-[(7S)-5-[3-(fluoromethyl)-4-(trifluoromethyl)phenyl]-7-methyl-4-oxo-6,7-dihydropyrazolo[1,5-a]pyrazin-3-yl]pyridine-3-carboxamide]",107,2.4e-09
C[C@H]1CN(c2ccc(C(F)(F)F)cc2)C(=O)c2c(NC(=O)c3ncccn3)cnn21 [Co. No. 98],106,1.51e-07
C[C@H]1CN(c2ccc(C(F)(F)F)cc2)C(=O)c2c(NC(=O)c3ccccn3)cnn21 [Co. No. 24],102,5.89e-09
COc1cccc(F)c1C(=O)Nc1cnn2c1C(=O)N(c1ccc(C(F)(F)F)cc1)C[C@@H]2C [Co. No. 41],109,1.05e-08
"Cc1cnc(NC(C)(C)C)c(C(=O)Nc2cnn3c2C(=O)N(c2ccc(C(F)(F)F)c(Cl)c2)C[C@@H]3C)c1 [Co. No. 167, 2-(tert-Butylamino)-N-[(7S)-5-[3-chloro-4-(trifluoromethyl)phenyl]-7-methyl-4-oxo-6,7-dihydropyrazolo[1,5-a]pyrazin-3-yl]-5-methyl-pyridine-3-carboxamide]",103,2.82e-07
"C[C@H]1CN(c2ccc(Cl)c(Cl)c2)C(=O)c2c(NC(=O)C(F)(F)F)cnn21 [Co. No. 173, N-[(7S)-5-(3,4-Dichlorophenyl)-7-methyl-4-oxo-6,7-dihydropyrazolo[1,5-a]pyrazin-3-yl]-2,2,2-trifluoro-acetamide]",104,2.29e-08
"Cc1cc(C(=O)Nc2cnn3c2C(=O)N(c2ccc(C(F)(F)F)c(Cl)c2)C[C@@H]3C)cnc1NC(C)(C)C [Co. No. 168, 6-(tert-butylamino)-N-[(7S)-5-[3-chloro-4-(trifluoromethyl)phenyl]-7-methyl-4-oxo-6,7-dihydropyrazolo[1,5-a]pyrazin-3-yl]-5-methyl-pyridine-3-carboxamide]",105,2.88e-08
"C[C@H]1CN(c2ccc(C(F)(F)F)cc2)C(=O)c2c(NC(=O)c3cc(N)[nH]n3)cnn21 [Co. No. 84, 5-Amino-N-[(7S)-7-methyl-4-oxo-5-[4-(trifluoromethyl)phenyl]-6,7-dihydropyrazolo[1,5-a]pyrazin-3-yl]-1H-pyrazole-3-carboxamide]",109,1.38e-07
C[C@H]1CN(c2ccc(C(F)(F)F)cc2)C(=O)c2c(NC(=O)c3ccno3)cnn21 [Co. No. 69],103,2.95e-08
